The source of these data is patent US8026240B2, “Octahydro-pyrrolo[3,4-b]pyrrole N-oxides” (Abbott Laboratories, priority 2007, dated 2011).

This experiment deals with T1, rat histamine-3 receptor (Rattus norvegicus, UniProt Q9QYN8).
T1 construct: expressed in transfected cells; host or cells: C6 or HEK293 cells
Briefly: histamine-3 receptor competition binding with [H3]-N-α-methylhistamine. On the procedure: To determine the effectiveness of representative compounds of this invention as histamine-3 receptor ligands, the following tests were conducted according to previously described methods (see Arrang et al, “Histamine H3 Receptor Binding Sites in Rat Brain Membranes:Modulations by Guanine Nucleotides and Divalent Cations”, European Journal of Pharmacology, Vol. 188, pp. 219-227 (1990); Tedford et al., “Pharmacological Characterization of GT-2016, A Non-Thiourea-Containing Histamine H3 Receptor Antagonist: In Vitro and In Vivo Studies”, The Journal of Pharmacology and Experimental Therapeutics, Vol. 275, pp. 598-604 (1995); Leurs et al., “Histamine Homologues Discriminating Between Two Functional H3-Receptor Assays. Evidence for H3 Receptor”, Journal of Pharmacology and Experimental Therapeutics, Vol. 276, No. 3, pp. 1009-1015 (1996); and Cheng et al., “Relationship Between the Inhibition Constant (K1) and the Concentration of Inhibitor which Causes 50% Inhibition (150) of an Enzymatic Reaction”, Biochemical Pharmacology, Vol. 22., pp. 3099-3108 (1973)).
The rat histamine-3 receptor was cloned and expressed in cells, and competition binding assays carried out, according to methods previously described (see Esbenshade et al., “Pharmacological Properties of ABT-239 [4-(2-{2-[(2R)-2-Methylpyrrolidinyl ]ethyl}-benzofuran-5-yl)benzonitrile]: I. Potent and Selective Histamine H3 Receptor Antagonist with Drug-Like Properties”, Journal of Pharmacology and Experimental Therapeutics, Vol. 313, pp. 165-175, (2005); Esbenshade et al., “Pharmacological and Behavioral Properties of A-349821, a Selective and Potent Human Histamine H3 Receptor Antagonist”, Biochemical Pharmacology, Vol 68, pp. 933-945 (2004); Krueger et al., “G Protein-Dependent Pharmacology of Histamine H3 Receptor Ligands: Evidence for Heterogeneous Active State Receptor Conformations”, Journal of Pharmacology and Experimental Therapeutics, Vol. 314, pp. 271-281 (2005)). Membranes were prepared from C6 or HEK293 cells, expressing the rat histamine-3 receptor, by homogenization on ice in TE buffer (50 mM Tris-HCl buffer, pH 7.4, containing 5 mM EDTA), 1 mM benzamidine, 2 μg/ml aprotinin, 1 μg/ml leupeptin, and 1 μg/ml pepstatin. The homogenate was centrifuged at 40,000 g for 20 minutes at 4° C. […]
Membrane preparations were incubated with [H3]-N-α-methylhistamine (0.5-1.0 nM) in the presence or absence of increasing concentrations of ligands of formula (I) and formula (II) for histamine-3 receptor competition binding. […] Bound radiolabel was determined by liquid scintillation counting. For all of the radioligand competition binding assays, IC50 values and Hill slopes were determined by Hill transformation of the data and pKi values were determined by the Cheng-Prusoff equation.

Where [1] appears, read: compounds of formula (I), mean of 4 separate determinations.

T1 sequence (Q9QYN8 whole entry): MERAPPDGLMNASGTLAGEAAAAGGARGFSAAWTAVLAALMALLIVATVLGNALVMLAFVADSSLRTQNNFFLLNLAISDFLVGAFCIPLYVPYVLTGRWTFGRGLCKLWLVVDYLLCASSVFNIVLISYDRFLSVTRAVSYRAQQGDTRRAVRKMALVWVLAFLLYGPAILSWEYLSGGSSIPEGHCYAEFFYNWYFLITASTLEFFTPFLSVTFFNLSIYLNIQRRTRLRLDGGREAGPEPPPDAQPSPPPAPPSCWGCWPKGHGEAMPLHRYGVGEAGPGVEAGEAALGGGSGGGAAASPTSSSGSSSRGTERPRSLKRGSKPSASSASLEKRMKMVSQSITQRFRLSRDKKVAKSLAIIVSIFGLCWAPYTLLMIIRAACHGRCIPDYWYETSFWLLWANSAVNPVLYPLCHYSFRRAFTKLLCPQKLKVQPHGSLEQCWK

One may read the Ki as a dissociation constant, usually derived from enzyme kinetics or from competition with a known ligand. Lower therefore signals a stronger hold on the target. `C[N@@+]1([O-])C[C@H]2CCN(c3ccc(-c4ccc(-n5ncccc5=O)cc4)cc3)[C@H]2C1` (single isomer, unassigned) returned a Ki under setting [1] greater than 5000 nM.
Consider `C[N@+]1([O-])C[C@H]2CCN(c3ccc(-c4ccc(-n5ncccc5=O)cc4)cc3)[C@H]2C1` (single isomer, unassigned), for which affinity under setting [1] was put at a Ki of 2240 nM.
Regarding `CN1C[C@H]2CCN(c3ccc(-c4ccc(-n5ncccc5=O)nc4)cc3)[C@H]2C1` [2-(5-{4-[(3aR,6aR)-5-methylhexahydropyrrolo[3,4-b]pyrrol-1(2H)-yl]phenyl}pyridin-2-yl) pyridazin-3(2H)-one], the Ki (compounds of formula (II)) stood at 3.5 nM.
Regarding `CN1C[C@H]2CCN(c3ccc(-c4ccc(-n5ncccc5=O)cc4)cc3)[C@H]2C1` [2-{4′-[(3aR,6aR)-5-methylhexahydropyrrolo[3,4-b]pyrrol-1(2H)-yl]-1,1′-biphenyl-4-yl}pyridazin-3(2H)-one], for the setting “compounds of formula (II)”, the Ki was determined as 8.2 nM.
